Results: PMC10301793 (Marine Drugs, 2023)
Like-named read-outs stand apart in the source and are kept apart here. Where a SMILES comes first, the peptide text is derived from it. Bridges are numbered along the chain shown (N, C = ends).

Tests used:
α7 nAChR = α7 nAChR (Rattus norvegicus, UniProt Q05941); assay: cell-based
α3β2 nAChR = α3β2 nAChR (Rattus norvegicus, UniProt P04757+P12390); assay: cell-based; type: cell-based
α3β4 nAChR = α3β4 nAChR (Rattus norvegicus, UniProt P04757+P12392); assay: cell-based
other nAChR subtypes = type: cell-based, rat
α4β2 nAChR = α4β2 nAChR (Rattus norvegicus, UniProt P09483+P12390); assay: cell-based
α9α10 nAChR = α9α10 nAChR (Rattus norvegicus, UniProt P43144+Q9JLB5); assay: cell-based
α6/α3β2β3 nAChR = α6/α3β2β3 nAChR (Rattus norvegicus, UniProt P04757+P12390+P12391+P43143); assay: cell-based
α2β2 nAChR = α2β2 nAChR (Rattus norvegicus, UniProt P12389+P12390); assay: cell-based

Sequence of α9α10 nAChR (P43144 26-479 limits assumed): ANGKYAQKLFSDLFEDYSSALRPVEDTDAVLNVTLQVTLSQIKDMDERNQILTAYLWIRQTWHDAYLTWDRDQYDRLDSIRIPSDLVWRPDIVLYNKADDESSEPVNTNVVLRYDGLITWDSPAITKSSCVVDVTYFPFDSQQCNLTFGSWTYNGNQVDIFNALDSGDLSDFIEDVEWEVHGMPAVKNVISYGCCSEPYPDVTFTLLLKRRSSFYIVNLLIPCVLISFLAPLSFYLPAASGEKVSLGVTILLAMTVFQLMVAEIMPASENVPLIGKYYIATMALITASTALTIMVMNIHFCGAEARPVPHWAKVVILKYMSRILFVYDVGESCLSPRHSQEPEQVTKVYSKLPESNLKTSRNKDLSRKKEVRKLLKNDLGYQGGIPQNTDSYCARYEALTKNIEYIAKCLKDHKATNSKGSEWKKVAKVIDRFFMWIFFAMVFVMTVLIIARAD
Sequence of α9α10 nAChR (Q9JLB5 25-447 limits assumed): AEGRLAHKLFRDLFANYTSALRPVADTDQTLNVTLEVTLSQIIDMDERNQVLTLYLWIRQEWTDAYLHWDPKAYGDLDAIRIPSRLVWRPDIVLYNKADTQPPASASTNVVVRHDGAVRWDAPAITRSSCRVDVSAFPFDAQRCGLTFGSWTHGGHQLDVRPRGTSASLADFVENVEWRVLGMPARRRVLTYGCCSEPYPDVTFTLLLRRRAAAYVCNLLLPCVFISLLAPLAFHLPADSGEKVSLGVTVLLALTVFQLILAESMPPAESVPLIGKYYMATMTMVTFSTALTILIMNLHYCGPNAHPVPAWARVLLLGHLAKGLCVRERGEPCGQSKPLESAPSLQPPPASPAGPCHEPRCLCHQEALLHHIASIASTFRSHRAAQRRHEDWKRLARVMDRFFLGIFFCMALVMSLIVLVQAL
Sequence of α6/α3β2β3 nAChR (P04757 whole entry, looked up): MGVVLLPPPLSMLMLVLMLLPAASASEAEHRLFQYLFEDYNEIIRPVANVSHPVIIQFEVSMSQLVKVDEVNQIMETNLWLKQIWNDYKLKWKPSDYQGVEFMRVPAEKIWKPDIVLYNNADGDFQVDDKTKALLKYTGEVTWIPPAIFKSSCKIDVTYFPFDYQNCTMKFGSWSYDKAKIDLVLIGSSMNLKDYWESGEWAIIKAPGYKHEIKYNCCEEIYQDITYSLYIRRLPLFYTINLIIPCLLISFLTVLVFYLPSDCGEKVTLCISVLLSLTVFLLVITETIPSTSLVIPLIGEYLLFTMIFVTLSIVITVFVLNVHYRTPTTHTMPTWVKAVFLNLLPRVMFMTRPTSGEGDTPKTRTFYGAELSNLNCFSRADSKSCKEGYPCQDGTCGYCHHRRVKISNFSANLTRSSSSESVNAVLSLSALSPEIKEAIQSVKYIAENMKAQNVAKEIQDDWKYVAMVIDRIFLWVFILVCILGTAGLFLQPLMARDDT
Sequence of α6/α3β2β3 nAChR (P12390 whole entry, looked up): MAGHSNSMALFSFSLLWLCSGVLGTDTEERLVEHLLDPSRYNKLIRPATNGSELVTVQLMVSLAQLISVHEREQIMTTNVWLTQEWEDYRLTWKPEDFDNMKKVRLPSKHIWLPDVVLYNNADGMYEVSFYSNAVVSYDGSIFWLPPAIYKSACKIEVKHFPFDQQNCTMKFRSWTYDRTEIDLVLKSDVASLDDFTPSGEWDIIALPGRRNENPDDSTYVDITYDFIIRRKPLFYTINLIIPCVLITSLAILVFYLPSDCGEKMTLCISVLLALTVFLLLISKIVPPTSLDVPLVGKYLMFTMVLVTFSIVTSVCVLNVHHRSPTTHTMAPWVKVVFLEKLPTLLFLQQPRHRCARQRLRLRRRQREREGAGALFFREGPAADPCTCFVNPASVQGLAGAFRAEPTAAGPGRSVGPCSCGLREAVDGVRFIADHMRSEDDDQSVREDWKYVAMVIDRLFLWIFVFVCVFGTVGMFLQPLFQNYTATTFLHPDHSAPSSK
Sequence of α6/α3β2β3 nAChR (P12391 whole entry, looked up): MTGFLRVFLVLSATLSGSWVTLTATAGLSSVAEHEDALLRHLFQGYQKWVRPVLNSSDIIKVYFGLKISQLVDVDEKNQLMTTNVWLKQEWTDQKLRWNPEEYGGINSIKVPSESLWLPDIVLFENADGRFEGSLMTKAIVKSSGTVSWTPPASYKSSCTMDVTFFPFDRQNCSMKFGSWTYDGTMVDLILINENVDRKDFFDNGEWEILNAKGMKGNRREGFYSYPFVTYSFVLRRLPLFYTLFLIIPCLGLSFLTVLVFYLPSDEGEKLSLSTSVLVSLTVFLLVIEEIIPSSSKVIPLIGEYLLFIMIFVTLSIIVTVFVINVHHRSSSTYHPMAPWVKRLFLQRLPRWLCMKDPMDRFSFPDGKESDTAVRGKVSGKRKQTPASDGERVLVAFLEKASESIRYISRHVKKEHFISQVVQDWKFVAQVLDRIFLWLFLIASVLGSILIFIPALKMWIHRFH
Sequence of α6/α3β2β3 nAChR (P43143 whole entry, looked up): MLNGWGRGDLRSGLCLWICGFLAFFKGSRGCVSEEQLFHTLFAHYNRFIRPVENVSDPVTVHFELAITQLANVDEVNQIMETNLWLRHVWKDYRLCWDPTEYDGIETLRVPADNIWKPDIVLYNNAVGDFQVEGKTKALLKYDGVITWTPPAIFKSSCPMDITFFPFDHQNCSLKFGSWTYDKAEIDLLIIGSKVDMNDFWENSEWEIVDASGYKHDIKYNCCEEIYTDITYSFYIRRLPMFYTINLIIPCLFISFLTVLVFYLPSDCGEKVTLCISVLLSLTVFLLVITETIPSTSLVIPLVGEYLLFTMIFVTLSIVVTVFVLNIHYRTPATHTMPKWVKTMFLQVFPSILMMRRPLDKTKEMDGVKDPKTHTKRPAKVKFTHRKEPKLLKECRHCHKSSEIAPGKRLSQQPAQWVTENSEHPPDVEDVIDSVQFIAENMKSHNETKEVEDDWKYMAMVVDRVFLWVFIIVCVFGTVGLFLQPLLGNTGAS
Sequence of α3β2 nAChR (P04757 26-499 limits assumed): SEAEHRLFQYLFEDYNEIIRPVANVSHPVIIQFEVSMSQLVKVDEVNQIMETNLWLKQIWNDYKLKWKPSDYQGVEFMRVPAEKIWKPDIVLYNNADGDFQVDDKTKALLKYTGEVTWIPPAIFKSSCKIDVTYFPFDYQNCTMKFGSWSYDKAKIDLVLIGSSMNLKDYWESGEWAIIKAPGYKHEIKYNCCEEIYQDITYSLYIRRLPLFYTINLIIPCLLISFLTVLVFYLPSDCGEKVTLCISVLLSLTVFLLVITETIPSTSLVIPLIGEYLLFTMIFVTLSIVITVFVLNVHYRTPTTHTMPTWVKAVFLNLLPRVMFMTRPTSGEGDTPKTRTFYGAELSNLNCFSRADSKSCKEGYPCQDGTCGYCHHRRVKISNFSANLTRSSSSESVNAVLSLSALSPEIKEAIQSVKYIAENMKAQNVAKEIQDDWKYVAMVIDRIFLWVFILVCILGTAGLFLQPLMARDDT
Sequence of α3β2 nAChR (P12390 25-500 limits assumed): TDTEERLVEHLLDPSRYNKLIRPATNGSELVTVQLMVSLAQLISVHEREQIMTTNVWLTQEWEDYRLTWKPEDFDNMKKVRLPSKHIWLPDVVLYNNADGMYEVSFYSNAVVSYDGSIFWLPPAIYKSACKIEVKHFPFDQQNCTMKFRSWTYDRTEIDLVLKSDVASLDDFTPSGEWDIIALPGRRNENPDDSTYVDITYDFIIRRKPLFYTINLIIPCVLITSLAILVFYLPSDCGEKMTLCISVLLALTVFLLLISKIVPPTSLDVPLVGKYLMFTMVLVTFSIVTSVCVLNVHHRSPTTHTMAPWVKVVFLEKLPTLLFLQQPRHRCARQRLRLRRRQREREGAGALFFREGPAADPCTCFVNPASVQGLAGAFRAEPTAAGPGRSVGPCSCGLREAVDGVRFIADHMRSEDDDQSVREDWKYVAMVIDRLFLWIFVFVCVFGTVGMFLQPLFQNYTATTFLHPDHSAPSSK
Sequence of α4β2 nAChR (P09483 31-630 limits assumed): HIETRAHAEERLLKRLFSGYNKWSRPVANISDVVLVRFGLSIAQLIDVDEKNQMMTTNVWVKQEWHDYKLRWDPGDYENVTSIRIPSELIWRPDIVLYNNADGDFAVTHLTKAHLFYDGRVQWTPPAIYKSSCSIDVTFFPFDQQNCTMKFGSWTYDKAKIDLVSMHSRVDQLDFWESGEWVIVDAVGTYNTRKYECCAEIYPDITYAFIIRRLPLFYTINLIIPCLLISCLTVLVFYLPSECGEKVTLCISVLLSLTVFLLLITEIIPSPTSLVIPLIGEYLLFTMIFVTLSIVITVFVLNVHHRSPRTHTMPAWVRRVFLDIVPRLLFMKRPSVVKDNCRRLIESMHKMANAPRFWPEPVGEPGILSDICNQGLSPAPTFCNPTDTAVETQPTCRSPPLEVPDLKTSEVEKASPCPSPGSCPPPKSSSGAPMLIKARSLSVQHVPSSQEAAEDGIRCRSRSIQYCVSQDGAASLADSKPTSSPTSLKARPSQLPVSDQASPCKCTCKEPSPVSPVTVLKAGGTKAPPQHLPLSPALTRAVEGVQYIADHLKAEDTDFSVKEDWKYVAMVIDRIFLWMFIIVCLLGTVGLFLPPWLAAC
Sequence of α4β2 nAChR (P12390 25-500 limits assumed): as the sequence (P12390 25-500 limits assumed) above
Sequence of α7 nAChR (Q05941 23-502 limits assumed): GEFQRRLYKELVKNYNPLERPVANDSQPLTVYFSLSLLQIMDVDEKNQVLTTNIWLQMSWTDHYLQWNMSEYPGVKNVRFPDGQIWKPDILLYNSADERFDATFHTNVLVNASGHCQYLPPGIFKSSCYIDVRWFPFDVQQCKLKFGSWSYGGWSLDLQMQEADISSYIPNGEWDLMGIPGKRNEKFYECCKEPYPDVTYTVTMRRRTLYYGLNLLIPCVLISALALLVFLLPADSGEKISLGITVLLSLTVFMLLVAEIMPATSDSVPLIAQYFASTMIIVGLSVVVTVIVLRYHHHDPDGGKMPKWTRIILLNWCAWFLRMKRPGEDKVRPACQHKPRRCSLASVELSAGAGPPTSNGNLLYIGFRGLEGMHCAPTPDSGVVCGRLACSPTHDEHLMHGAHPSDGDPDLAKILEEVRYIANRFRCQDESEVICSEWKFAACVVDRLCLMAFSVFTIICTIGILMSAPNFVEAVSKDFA

| Compound | IC50 (α7 nAChR) [nM] | Hill Slope (α3β2 nAChR) | IC50 (α3β2 nAChR) [nM] | fold lower potency than at α6/α3β2β3 (α3β2 nAChR) | IC50 (α3β4 nAChR) [nM] | inhibition (other nAChR subtypes) [%] | IC50 (other nAChR subtypes; read-out: potency) [nM] | IC50 (α4β2 nAChR) [nM] | IC50 (α9α10 nAChR) [nM] | Hill Slope (α6/α3β2β3 nAChR) | IC50 (α6/α3β2β3 nAChR) [nM] | IC50 (α2β2 nAChR) [nM] | Hill Slope (α7 nAChR) | fold less potency than at muscle-type α1β1γδ (α3β2 nAChR) | Hill Slope (α3β4 nAChR) | IC50 (other nAChR subtypes; read-out: IC50) [nM] | Hill Slope (α4β2 nAChR) | Hill Slope (α9α10 nAChR) | Hill Slope (α2β2 nAChR) |
| --- | --- | --- | --- | --- | --- | --- | --- | --- | --- | --- | --- | --- | --- | --- | --- | --- | --- | --- | --- |
| CC(C)C[C@@H]1NC(=O)[C@H](C(C)C)NC(=O)[C@H](C)NC(=O)[C@@H]2CSSC[C@H](NC(=O)CN)C(=O)N[C@@H](CSSC[C@@H](C(N)=O)NC(=O)[C@H](Cc3c[nH]cn3)NC1=O)C(=O)N[C@@H](CO)C(=O)N[C@@H]([C@@H](C)O)C(=O)N1CCC[C@H]1C(=O)N1CCC[C@H]1C(=O)N2 [AdIA] (H-GCCSTPPCAVLHC-NH2; disulfide 2-8, 3-13) | > 10 | −1.24 | 1380 | at least 8 fold | > 10 | ≤ 50 | > 10000 | > 10 | > 10 | −1.14 | 177 | > 10 |  |  |  |  |  |  |  |
| C[C@@H]1NC(=O)[C@@H]2CCCN2C(=O)[C@H](Cc2c[nH]cn2)NC(=O)[C@@H]2CSSC[C@@H](C(N)=O)NC(=O)[C@H](CC(N)=O)NC(=O)[C@H](Cc3ccc(O)cc3)NC(=O)[C@H](CCCCN)NC(=O)[C@H](CCCNC(=N)N)NC(=O)CNC(=O)[C@H](CSSC[C@H](NC(=O)[C@H](CCCNC(=N)N)NC(=O)CN)C(=O)N2)NC1=O [GaIA] (H-GRCCHPACGRKYNC-NH2; disulfide 3-8, 4-14) |  | −1.25 |  |  |  |  |  |  | 777 | −0.87 |  |  | −1.45 | about 25 fold | −1.37 | > 1000 | −1.28 | −0.93 | −1.09 |
